Measurements from patent US20250243208A1, “BICYCLIC HETEROCYCLES AS MRGPRX2 ANTAGONISTS” (Incyte Corporation, priority 2024, published 2025).

Key:
MRGPRX2 [1] = biological target: T1, MRGPRX2 (Homo sapiens, UniProt Q96LB1); test: potency comparison of separated isomers (assay not stated); settings: compared with the other separated diastereomer/enantiomer
T1 sequence (Q96LB1 1-330): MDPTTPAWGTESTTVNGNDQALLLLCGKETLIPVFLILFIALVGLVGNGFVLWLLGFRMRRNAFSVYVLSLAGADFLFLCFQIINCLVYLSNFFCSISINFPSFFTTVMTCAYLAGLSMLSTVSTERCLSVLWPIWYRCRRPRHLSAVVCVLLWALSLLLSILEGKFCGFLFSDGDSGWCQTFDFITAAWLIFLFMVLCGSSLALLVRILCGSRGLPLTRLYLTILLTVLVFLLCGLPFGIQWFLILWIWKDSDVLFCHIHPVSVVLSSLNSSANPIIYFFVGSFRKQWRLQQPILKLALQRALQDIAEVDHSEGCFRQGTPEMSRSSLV

MRGPRX2 [2] = biological target: T1, MRGPRX2; test: MRGPRX2 β-Arrestin recruitment assay (PathHunter CHO-K1); format: cell-based; set-up: host or cells: PathHunter CHO-K1; settings: PathHunter CHO-K1 cells, agonist Cortistatin 14 0.25 μM
Source text: Example C: MRGPRX2 β-Arrestin Assay
This assay measures compound inhibition of β-Arrestin recruitment, which is part of the G protein-independent pathway that results from the ligand-activated GPCR phosphorylation by specific GPCR kinases. The PathHunter CHO-K1 MRPGRX2 B-Arrestin Cell line stably expressing ProLink tagged MRGPRX2 and Enzyme Acceptor Tagged B-Arrestin was purchased from Eurofins DiscoverX, (Fremont, CA).
The cells were maintained in culture medium from the Europhins DiscoverX Cell Culture Kit-107 which includes FBS, hygromycin B and G418. For the assay, the cells were harvested and were resuspended with Cell Plating Reagent 2 (Eurofins DiscoverX). Cells were added 10000 cells in 25 μL/well to a 384-well black cell culture plate (Greiner VWR, Radnor, PA) which contained 125 nL/well of compound at a selected serially diluted concentration range or DMSO. The plate was incubated at 37° C. with 5% CO2 for 1 h. 2 μL/well of agonist Cortistatin 14 was diluted in Protein Dilution Buffer, (Eurofins DiscoverX) for a final concentration of 0.25 μM, was added and the plate was incubated at 37° C. with 5% CO2 for 90 min. 14 μL/well of Detection Reagent Mix (PathHunter Detection Kit, Eurofins DiscoverX) was added to the plates and further incubated for 1 h in the dark. Plates were read on the PHERAstar microplate reader (BMG Labtech Cary, NC) measuring luminescence 0.1 to 1 s per well. Data was normalized using DMSO only wells and wells with high concentration of reference antagonist as controls. Compound IC50 curves were globally fitted with 3- or 4-parameter Hill equation in a Genedata Screener (Genedata Basel, Switzerland).

MRGPRX2 [3] = biological target: T1, MRGPRX2; test: MRGPRX2 IP1 HTRF assay; format: cell-based; set-up: host or cells: CHO-K1; settings: CHO-K1 cells, agonist Cortistatin 14 1 μM, IP1 accumulation
Source text: Example B: MRGPRX2 IP1 HTRF Assay
This assay measures compound inhibition of myo-Inositol 1 phosphate (IP1) accumulation in CHO-K1 cells. Chinese hamster ovary (CHO-K1) cells stably expressing human MRGPRX2 were purchased from GenScript (Piscataway, NJ).
For the HTRF IP1 determination, an IP-One GqKit (Perkin Elmer Cisbio, Waltham, MA), which includes all reagents and buffers in this protocol, was used. The cells were maintained in culture medium (Ham's F-12K) containing 10% (v/v) FBS, and 200 μg/mL Zeocin. For the assay, the cells were harvested and resuspended in culture medium with 2% FBS and without Zeocin, then were passed through a 40 μm filter. Cells were added at 20000 cells in a 5 μL/well to a 384-well white small volume cell culture plate (Greiner VWR, Radnor, PA) which contained 50 nL/well of test compound serially diluted at a selected concentration range in DMSO. 5 μL/well of prepared 2× Stimulation Buffer2 was then added to plates and was incubated at 37° C. with 5% CO2 for 1 h. 5 μL/well of agonist Cortistatin 14 (Bio-TechneR&D Systems, Minneapolis, MN) in 1× Stimulation Buffer 2, for a 1 μM final concentration, was then added to plates and incubated at 37° C. with 5% CO2 for 1 h. 6 μL/well of 1:20 diluted Detection Reagent Mix (d2 and Cryptate) was added to the plates and incubated for 1 h in the dark. Plates were read on the PHERAstar microplate reader (BMG Labtech Cary, NC) to determine the HTRF ratio of the acceptor and donor emission signals. The IP1 concentrations were calculated from a standard curve following the IP-One GQ kit instructions. Wells with DMSO only and wells with high concentration of reference antagonist were used as controls for normalization. Compound IC50 curves were globally fitted with 3- or 4-parameter Hill equation in a Genedata Screener (Genedata Basel, Switzerland).

Compound	relative potency of the separated isomer (MRGPRX2 [1])	IC50 (MRGPRX2 [2]) [nM]	IC50 (MRGPRX2 [3]) [nM]
NC(=O)N1CCC(C(CNc2cc(C(F)(F)F)nc3cc(C(F)(F)F)nn23)c2ccc(F)cc2)C1 (single isomer, unassigned) [Example 20, 3-(2-((2,5-Bis(trifluoromethyl)pyrazolo[1,5-a]pyrimidin-7-yl)amino)-1-(4-fluorophenyl)ethyl)pyrrolidine-1-carboxamide]	more potent	0.1 to 100	
[2H]C([2H])([2H])NC(=O)C1CN(C(CNc2cc(C(F)(F)F)nc3cc(C(F)(F)F)nn23)c2ccc(F)cc2)C1 (single isomer, unassigned) [Example 26, 1-(2-((2,5-Bis(trifluoromethyl)pyrazolo[1,5-a]pyrimidin-7-yl)amino)-1-(4-fluorophenyl)ethyl)-N-(methyl-d3)azetidine-3-carboxamide]	more potent	0.1 to 100	
CC1(O)CN(C(CNc2cc(C(F)(F)F)nc3cc(C(F)(F)F)nn23)c2ccc(F)cc2)C1 (single isomer, unassigned) [Example 35, 1-(2-((2,5-Bis(trifluoromethyl)pyrazolo[1,5-a]pyrimidin-7-yl)amino)-1-(4-fluorophenyl)ethyl)-3-methylazetidin-3-ol]	active	0.1 to 100	
CC(CNc1cc(C(F)(F)F)nc2cc(C(F)(F)F)nn12)(c1ccccc1)C1CN(C(N)=O)C1 (racemic) [Example 10, 3-(1-((2,5-Bis(trifluoromethyl)pyrazolo[1,5-a]pyrimidin-7-yl)amino)-2-phenylpropan-2-yl)azetidine-1-carboxamide]		0.1 to 100	0.1 to 100
O=C1CC2(CN1)CN(C(CNc1cc(C(F)(F)F)nc3cc(C(F)(F)F)nn13)c1ccc(F)cc1)C2 (single isomer, unassigned) [Example 36, 2-(2-((2,5-Bis(trifluoromethyl)pyrazolo[1,5-a]pyrimidin-7-yl)amino)-1-(4-fluorophenyl)ethyl)-2,6-diazaspiro[3.4]octan-7-one]	active	0.1 to 100	
CC(CNc1cc(C(F)F)nc2cc(C(F)(F)F)nn12)(c1ccccc1)C1CN(S(N)(=O)=O)C1 (racemic) [Example 7, 3-(1-((5-(Difluoromethyl)-2-(trifluoromethyl)pyrazolo[1,5-a]pyrimidin-7-yl)amino)-2-phenylpropan-2-yl)azetidine-1-sulfonamide]		0.1 to 100	0.1 to 100
CC(CNc1cc(C(F)(F)F)nc2cc(C(F)(F)F)nn12)(c1ccccc1)C1CNC1 (racemic) [Example 11, N-(2-(Azetidin-3-yl)-2-phenylpropyl)-2,5-bis(trifluoromethyl)pyrazolo[1,5-a]pyrimidin-7-amine]		0.1 to 100	0.1 to 100
NC(=O)N1CCC(C(CO)(CNc2cc(C(F)(F)F)nc3cc(C(F)(F)F)nn23)c2ccc(F)cc2)C1 (single isomer, unassigned) [Example 18, 3-(1-((2,5-Bis(trifluoromethyl)pyrazolo[1,5-a]pyrimidin-7-yl)amino)-2-(4-fluorophenyl)-3-hydroxypropan-2-yl)pyrrolidine-1-carboxamide]		0.1 to 100	0.1 to 100
O=C1NC2(CCO1)CN(C(CNc1cc(C(F)(F)F)nc3cc(C(F)(F)F)nn13)c1ccc(F)cc1)C2 (single isomer, unassigned) [Example 25, 2-(2-((2,5-Bis(trifluoromethyl)pyrazolo[1,5-a]pyrimidin-7-yl)amino)-1-(4-fluorophenyl)ethyl)-7-oxa-2,5-diazaspiro[3.5]nonan-6-one]	more potent	0.1 to 100	
C[C@](CNc1cc(C(F)(F)F)nc2cc(C(F)(F)F)nn12)(c1ccc(F)cc1)C1CN(C(N)=O)C1 (single isomer, unassigned) [Example 6, 3-(1-((2,5-Bis(trifluoromethyl)pyrazolo[1,5-a]pyrimidin-7-yl)amino)-2-(4-fluorophenyl)propan-2-yl)azetidine-1-carboxamide]		0.1 to 100	0.1 to 100
C[C@](CNc1cc(C(F)(F)F)nc2cc(C(F)(F)F)nn12)(c1ccc(F)cc1)C1CN(C(N)=O)C1 (single isomer, unassigned) [Example 5, 3-(1-((2,5-Bis(trifluoromethyl)pyrazolo[1,5-a]pyrimidin-7-yl)amino)-2-(4-fluorophenyl)propan-2-yl)azetidine-1-carboxamide]			0.1 to 100
CC(CNc1cc(C(F)F)nc2cc(C(F)(F)F)nn12)(c1ccccc1)C1CN(C(N)=O)C1 (racemic) [Example 8, 3-(1-((5-(Difluoromethyl)-2-(trifluoromethyl)pyrazolo[1,5-a]pyrimidin-7-yl)amino)-2-phenylpropan-2-yl)azetidine-1-carboxamide]		0.1 to 100	0.1 to 100
NC(=O)N1CC2(CCN(C(CNc3cc(C(F)(F)F)nc4cc(C(F)(F)F)nn34)c3ccc(F)cc3)C2)C1 (racemic) [Example 33, 6-(2-((2,5-Bis(trifluoromethyl)pyrazolo[1,5-a]pyrimidin-7-yl)amino)-1-(4-fluorophenyl)ethyl)-2,6-diazaspiro[3.4]octane-2-carboxamide]		0.1 to 100	
CC(CNc1cc(C(F)(F)F)nc2cc(C(F)(F)F)nn12)(c1ccccc1)C1CN(c2n[nH]c(N)n2)C1 (racemic) [Example 9, N-(2-(1-(5-Amino-1H-1,2,4-triazol-3-yl)azetidin-3-yl)-2-phenylpropyl)-2,5-bis(trifluoromethyl)pyrazolo[1,5-a]pyrimidin-7-amine]		0.1 to 100	0.1 to 100
O=C1NCC2(CN(C(CNc3cc(C(F)(F)F)nc4cc(C(F)(F)F)nn34)c3ccc(F)cc3)C2)N1 (single isomer, unassigned) [Example 37, 2-(2-((2,5-Bis(trifluoromethyl)pyrazolo[1,5-a]pyrimidin-7-yl)amino)-1-(4-fluorophenyl)ethyl)-2,5,7-triazaspiro[3.4]octan-6-one]	active	0.1 to 100	
Cn1cc(NC2CN(C(CNc3cc(C(F)(F)F)nc4cc(C(F)(F)F)nn34)c3ccc(F)cc3)C2)nn1 (racemic) [Example 27, N-(2-(4-Fluorophenyl)-2-(3-((1-methyl-1H-1,2,3-triazol-4-yl)amino)azetidin-1-yl)ethyl)-2,5-bis(trifluoromethyl)pyrazolo[1,5-a]pyrimidin-7-amine]		0.1 to 100	
OC1CCC2(CC1)CN(C(CNc1cc(C(F)(F)F)nc3cc(C(F)(F)F)nn13)c1ccc(F)cc1)C2 (racemic) [Example 23, 2-(2-((2,5-Bis(trifluoromethyl)pyrazolo[1,5-a]pyrimidin-7-yl)amino)-1-(4-fluorophenyl)ethyl)-2-azaspiro[3.5]nonan-7-ol]		0.1 to 100	
C[C@@]1(O)CCN(C(CNc2cc(C(F)(F)F)nc3cc(C(F)(F)F)nn23)c2ccc(F)cc2)C1 (mixture of isomers) [Example 30, (3R)-1-(2-((2,5-Bis(trifluoromethyl)pyrazolo[1,5-a]pyrimidin-7-yl)amino)-1-(4-fluorophenyl)ethyl)-3-methylpyrrolidin-3-ol]		0.1 to 100	
